Measurements from ChEMBL document CHEMBL5518248, “Design, Synthesis, and Biological Evaluation of Novel Arylomycins against Multidrug-Resistant Gram-Negative Bacteria” (J Med Chem, 2024).
≈ marks a conversion by molar mass, not a printed value. Calls of active or inactive are those of the source. No cut-off for these calls is given here.

Tests used:
[1] = test system: Pseudomonas aeruginosa; assay: Antibacterial activity against Pseudomonas aeruginosa T-2022 assessed as inhibition of bacterial growth measured after 18 to 20 hrs by broth microdilution method; format: functional; settings: time 18-20 hrs
[2] = Cytotoxicity against HEK293T cells assessed as inhibition of cell growth incubated for 24 hrs by CCK8 method; format: toxicity, cell-based, HEK-293T; settings: human
[3] = test system: Pseudomonas aeruginosa; assay: Antibacterial activity against Pseudomonas aeruginosa 19-5 assessed as inhibition of bacterial growth measured after 18 to 20 hrs by broth microdilution method; format: functional; settings: time 18-20 hrs
[4] = Half life in Sprague-Dawley rat at 10 mg/kg, iv measured upto 24 hrs LC-MS/MS analysis; format: ADME, organism-based; settings: in vivo
[5] = MRT in Sprague-Dawley rat at 10 mg/kg, po measured upto 24 hrs LC-MS/MS analysis; format: ADME, organism-based; settings: in vivo
[6] = test system: Escherichia coli; assay: Antibacterial activity against Escherichia coli 14-2 assessed as inhibition of bacterial growth measured after 18 to 20 hrs by broth microdilution method; format: functional; settings: time 18-20 hrs
[7] = test system: Klebsiella pneumoniae; assay: Antibacterial activity against Klebsiella pneumoniae 15-5 assessed as inhibition of bacterial growth measured after 18 to 20 hrs by broth microdilution method; format: functional; settings: time 18-20 hrs
[8] = Cmax in Sprague-Dawley rat at 10 mg/kg, po measured upto 24 hrs LC-MS/MS analysis; format: ADME, organism-based; settings: in vivo
[9] = Oral bioavailability in Sprague-Dawley rat at 10 mg/kg measured upto 24 hrs LC-MS/MS analysis; format: ADME, organism-based; settings: in vivo
[10] = AUC (0 to t) in Sprague-Dawley rat at 10 mg/kg, po measured upto 24 hrs LC-MS/MS analysis; format: ADME, organism-based; settings: in vivo
[11] = test system: Pseudomonas aeruginosa; assay: Antibacterial activity against Pseudomonas aeruginosa; format: functional
[12] = test system: Acinetobacter baumannii; assay: Antibacterial activity against Acinetobacter baumannii; format: functional
[13] = test system: HepG2; assay: Cytotoxicity against human HepG2 cells assessed as inhibition of cell growth incubated for 24 hrs by CCK8 method; format: functional, cell-based; settings: HepG2, 24 h
[14] = test system: Acinetobacter baumannii; assay: Antibacterial activity against Acinetobacter baumannii 17-8 assessed as inhibition of bacterial growth measured after 18 to 20 hrs by broth microdilution method; format: functional; settings: time 18-20 hrs
[15] = test system: Pseudomonas aeruginosa; assay: Antibacterial activity against Pseudomonas aeruginosa 17-1 assessed as inhibition of bacterial growth measured after 18 to 20 hrs by broth microdilution method; format: functional; settings: time 18-20 hrs
[16] = test system: Escherichia coli; assay: Antibacterial activity against Escherichia coli ATCC 35218 assessed as inhibition of bacterial growth measured after 18 to 20 hrs by broth microdilution method; format: functional; settings: time 18-20 hrs
[17] = test system: Klebsiella pneumoniae; assay: Antibacterial activity against Klebsiella pneumoniae 15-4 assessed as inhibition of bacterial growth measured after 18 to 20 hrs by broth microdilution method; format: functional; settings: time 18-20 hrs
[18] = Clearance in Sprague-Dawley rat at 10 mg/kg, iv measured upto 24 hrs LC-MS/MS analysis; format: ADME, organism-based; settings: in vivo
[19] = AUC (0 to t) in Sprague-Dawley rat at 10 mg/kg, iv measured upto 24 hrs LC-MS/MS analysis; format: ADME, organism-based; settings: in vivo
[20] = Volume of distribution at steady state in Sprague-Dawley rat at 10 mg/kg, iv measured upto 24 hrs LC-MS/MS analysis; format: ADME, organism-based; settings: in vivo, read-out: Vdss
[21] = test system: Acinetobacter baumannii; assay: Antibacterial activity against Acinetobacter baumannii 17-2 assessed as inhibition of bacterial growth measured after 18 to 20 hrs by broth microdilution method; format: functional; settings: time 18-20 hrs
[22] = test system: Jurkat; assay: Cytotoxicity against human Jurkat cells assessed as inhibition of cell growth incubated for 24 hrs by CCK8 method; format: functional, cell-based
[23] = test system: HepG2; assay: Cytotoxicity against human HepG2 cells assessed as inhibition of cell growth at 100 uM incubated for 24 hrs by CCK8 method relative to control; format: functional
[24] = MRT in Sprague-Dawley rat at 10 mg/kg, iv measured upto 24 hrs LC-MS/MS analysis; format: ADME, organism-based; settings: in vivo
[25] = test system: Pseudomonas aeruginosa; assay: Antibacterial efficacy against multi drug resistant Pseudomonas aeruginosa T-2022-D2-048 infected in cyclophosphamide-induced neutropenic thigh infection ICR mouse model assessed as decrease in bacterial burden administered as iv dose measured after 24 hrs; format: functional, organism-based; settings: dose 3-12 mg/kg
[26] = test system: Jurkat; assay: Cytotoxicity against human Jurkat cells assessed as inhibition of cell growth at 100 uM incubated for 24 hrs by CCK8 method relative to control; format: functional
[27] = test system: Klebsiella pneumoniae; assay: Antibacterial activity against Klebsiella pneumoniae 15-1 assessed as inhibition of bacterial growth measured after 18 to 20 hrs by broth microdilution method; format: functional; settings: time 18-20 hrs
[28] = Half life in Sprague-Dawley rat at 10 mg/kg, po measured upto 24 hrs LC-MS/MS analysis; format: ADME, organism-based; settings: in vivo
[29] = Cytotoxicity against HEK293T cells assessed as inhibition of cell growth at 100 uM incubated for 24 hrs by CCK8 method relative to control; format: toxicity, cell-based, HEK-293T; settings: human
[30] = test system: Escherichia coli; assay: Antibacterial activity against Escherichia coli 14-4 assessed as inhibition of bacterial growth measured after 18 to 20 hrs by broth microdilution method; format: functional; settings: time 18-20 hrs
[31] = Tmax in Sprague-Dawley rat at 10 mg/kg, po measured upto 24 hrs LC-MS/MS analysis; format: ADME, organism-based; settings: in vivo
[32] = test system: Pseudomonas aeruginosa; assay: Antibacterial activity against multi drug resistant Pseudomonas aeruginosa T-2022-D2-048 infected in cyclophosphamide-induced neutropenic thigh infection ICR mouse model assessed as reduction in log CFU at 12 mg/kg, iv measured after 24 hrs; format: functional

Row | SMILES | MIC [3] [µg/mL] | MIC [6] [µg/mL] | MIC [7] [µg/mL] | MIC [14] [µg/mL] | MIC [15] [µg/mL] | MIC [16] [µg/mL] | MIC [17] [µg/mL] | MIC [21] [µg/mL] | MIC [27] [µg/mL] | MIC [30] [µg/mL] | MIC [1] [µg/mL] | IC50 at 24 h [2] [µM] | half-life [4] [h] | MRT [5] [h] | Cmax [8] [ng/mL] | IC50 [13] [µM] | IC50 [22] [µM] | inhibition at 100 µM [23] [%] | inhibition at 100 µM [26] [%] | inhibition at 24 h, 100 µM [29] [%] | also measured
1 | Cc1nc(-c2ccc(C(C)(C)C)cc2)ncc1C(=O)N[C@@H](CCN)C(=O)N(C)[C@@H]1C(=O)N[C@@H](C)C(=O)N[C@H](C(=O)NCC#N)Cc2ccc(OCCN)c(c2)-c2cc1ccc2OCCN.Cl.Cl.Cl.Cl | 16 | ≤ 0.03 | 0.06 | 1 | 32 | ≤ 0.03 | 0.125 | 2 | ≤ 0.03 | ≤ 0.03 | 8 | > 100 | 1.51 | 2.69 | 3.37 | > 100 | > 100 | -3.46 | 20.8 | 37.9 | F ([9]; po, 10 mg/kg, 24 h): 0.1%; AUCt ([10]; po, 10 mg/kg, 24 h): 9.01 ng·h/mL; MIC90 [11]: 16 µg/mL; MIC90 [12]: 4 µg/mL; clearance [18]: 2.71 mL/min/kg; AUCt ([19]; iv, 10 mg/kg, 24 h): 61496 ng·h/mL; Vd [20]: 0.423 L/kg; MRT [24]: 2.62 h; Activity [25]: inactive; half-life [28]: 1.56 h; Tmax [31]: 1.17 h
2 | Cc1nc(-c2ccc(CSSC(C)(C)C)cc2)ncc1C(=O)N[C@@H](CCN)C(=O)N(C)[C@@H]1C(=O)N[C@@H](C)C(=O)N[C@H](C(=O)NCC#N)Cc2ccc(OCCN)c(c2)-c2cc1ccc2OCCN [listing 1 of 2 here] | – | – | – | – | – | – | – | – | – | – | – | – | – | – | – | – | – | – | – | – | Activity [25]: Dose-Dependent Effect
3 | C[C@H]1COc2c(N3CCN(C)CC3)c(F)cc3c(=O)c(C(=O)O)cn1c23 [LEVOFLOXACIN ANHYDROUS] | – | – | – | – | – | – | – | – | – | – | > 64 | – | – | – | – | – | – | – | – | – | –
4 | Cc1nc(-c2ccc(CSSC(C)(C)C)cc2)ncc1C(=O)N[C@@H](CCN)C(=O)N(C)[C@@H]1C(=O)N[C@@H](C)C(=O)N[C@H](C(=O)NCC#N)Cc2ccc(OCCN)c(c2)-c2cc1ccc2OCCN [listing 2 of 2 here] | – | – | – | – | – | – | – | – | – | – | 4 (≈ 4.13 µM) | – | 4.18 | 5.63 | 11.5 | – | – | – | – | – | log CFU reduction [32]: 3.5 log CFU/g; bioavailability ([9]; Sprague-Dawley): 0.05%; AUC(0-t) at 24 h ([10]; Sprague-Dawley): 70.1 ng·h/mL; clearance [18]: 1.16 mL/min/kg; AUC(0-t) at 24 h ([19]; Sprague-Dawley): 142000 ng·h/mL; Vd [20]: 0.435 L/kg; MRT [24]: 6.27 h; half-life [28]: 2.83 h; Tmax [31]: 3.33 h

Continued, in another order:

Row | MIC [3] [µg/mL] | MIC [6] [µg/mL] | MIC [7] [µg/mL] | MIC [14] [µg/mL] | MIC [15] [µg/mL] | MIC [16] [µg/mL] | MIC [17] [µg/mL] | MIC [21] [µg/mL] | MIC [27] [µg/mL] | MIC [30] [µg/mL] | SMILES | MIC [1] [µg/mL] | IC50 at 24 h [2] [µM] | half-life [4] [h] | MRT [5] [h] | Cmax [8] [ng/mL] | IC50 [13] [µM] | IC50 [22] [µM] | inhibition at 100 µM [23] [%] | inhibition at 100 µM [26] [%] | inhibition at 24 h, 100 µM [29] [%] | also measured
5 | 4 | ≤ 0.03 | 0.06 | 0.5 | 4 | ≤ 0.03 | 0.125 | 1 | ≤ 0.03 | ≤ 0.03 | CCCSSc1ccc(-c2ncc(C(=O)N[C@@H](CCN)C(=O)N(C)[C@@H]3C(=O)N[C@@H](C)C(=O)N[C@H](C(=O)NCC#N)Cc4ccc(OCCN)c(c4)-c4cc3ccc4OCCN)c(C)n2)cc1.O=C(O)C(F)(F)F.O=C(O)C(F)(F)F.O=C(O)C(F)(F)F.O=C(O)C(F)(F)F | – | > 100 | – | – | – | > 100 | > 100 | -6.72 | 42.4 | 30.6 | –
6 | 4 | ≤ 0.03 | 0.06 | 0.125 | 4 | ≤ 0.03 | 0.06 | 0.5 | ≤ 0.03 | ≤ 0.03 | Cc1nc(-c2ccc(CSSCC(C)C)cc2)ncc1C(=O)N[C@@H](CCN)C(=O)N(C)[C@@H]1C(=O)N[C@@H](C)C(=O)N[C@H](C(=O)NCC#N)Cc2ccc(OCCN)c(c2)-c2cc1ccc2OCCN.O=C(O)C(F)(F)F.O=C(O)C(F)(F)F.O=C(O)C(F)(F)F.O=C(O)C(F)(F)F | – | > 100 | – | – | – | > 100 | > 100 | -4.7 | 18.4 | 42.7 | –
